Test results: patent publication US6737383B1, “Herbicidal oxadiazolidines” (priority 1999, dated 2004)

Assays:
wheat = assay: Test B pre/postemergence wheat; format: in vivo, Triticum aestivum; conditions: scale of 0 to 10 where 0 is no effect and 10 is complete control
Summary of the method: (§1)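 Test chemicals in a non-phytotoxic solvent mixture with surfactant were sprayed preemergence onto planted seeds and postemergence onto plants 2 to 18 cm tall (1- to 4-leaf stage). After twelve to sixteen days in a greenhouse, injury was visually rated against untreated controls from 0 (no effect) to 10 (complete control).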

soybean = assay: Test B pre/postemergence soybean; format: in vivo, Glycine max; conditions: scale of 0 to 10 where 0 is no effect and 10 is complete control
Summary of the method: as §1

wild oat = assay: Test B pre/postemergence wild oat; format: in vivo, Avena fatua; conditions: scale of 0 to 10 where 0 is no effect and 10 is complete control
Summary of the method: as §1

smallflower flatsedge = assay: Test B flood test smallflower flatsedge; format: in vivo, Cyperus difformis
Summary of the method: (§2)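 Plants were grown to the 2-leaf stage before treatment with test chemical, then held in a greenhouse for twelve to sixteen days. Injury was visually rated against untreated controls on a 0–10 scale, where 0 is no effect and 10 is complete control.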

morningglory = assay: Test B pre/postemergence morningglory; format: in vivo, Ipomoea hederacea
Summary of the method: as §1

corn = assay: Test B pre/postemergence corn; format: in vivo, Zea mays
Summary of the method: as §1

rape = assay: Test B pre/postemergence rape; format: in vivo, Brassica napus; conditions: scale of 0 to 10 where 0 is no effect and 10 is complete control
Summary of the method: as §1

cocklebur = assay: Test B pre/postemergence cocklebur; format: in vivo, Xanthium strumarium
Summary of the method: as §1

duck salad = assay: Test B flood test duck salad; format: in vivo, Heteranthera limosa
Summary of the method: as §2

bedstraw = assay: Test B pre/postemergence bedstraw; format: in vivo, Galium aparine; conditions: scale of 0 to 10 where 0 is no effect and 10 is complete control
Summary of the method: as §1

purple nutsedge = assay: Test B pre/postemergence purple nutsedge; format: in vivo, Cyperus rotundus
Summary of the method: as §1

giant foxtail = assay: Test B pre/postemergence giant foxtail; format: in vivo, Setaria faberii
Summary of the method: as §1

velvetleaf = assay: Test B pre/postemergence velvetleaf; format: in vivo, Abutilon theophrasti
Summary of the method: as §1

rice = assay: Test B flood test rice; format: in vivo, Oryza sativa
Summary of the method: as §2

crabgrass = assay: Test B pre/postemergence crabgrass; format: in vivo, Digitaria sanguinalis
Summary of the method: as §1

pigweed = assay: Test B pre/postemergence pigweed; format: in vivo, Amaranthus retroflexus; conditions: scale of 0 to 10 where 0 is no effect and 10 is complete control
Summary of the method: as §1

[1] = Rate 62 g/ha, headed Pre-emergence (flood test species), scale 0 to 10 (0 no effect, 10 complete control)
[2] = Rate 125 g/ha, Pre-emergence, flood test species, scale 0 to 10 where 0 is no effect and 10 is complete control
[3] = Rate 250 g/ha, Pre-emergence, flood-test species, scale 0 to 10, 0 is no effect, 10 is complete control
[4] = Rate 500 g/ha, Pre-emergence, flood test species, scale 0 to 10 (0 no effect, 10 complete control)
[5] = Preemergence, Rate 62 g/ha, scale of 0 to 10 where 0 is no effect and 10 is complete control
[6] = Preemergence, Rate 250 g/ha, scale of 0 to 10 where 0 is no effect and 10 is complete control
[7] = Preemergence, Rate 500 g/ha, scale of 0 to 10 where 0 is no effect and 10 is complete control
[8] = Rate 125 g/ha, Postemergence, scale of 0 to 10 where 0 is no effect and 10 is complete control
[9] = Rate 125 g/ha, Preemergence, scale of 0 to 10 where 0 is no effect and 10 is complete control
[10] = Rate 250 g/ha, Postemergence, scale of 0 to 10 where 0 is no effect and 10 is complete control
[11] = Rate 500 g/ha, Postemergence, scale 0 to 10, 0 no effect, 10 complete control
[12] = Rate 62 g/ha, Postemergence, scale of 0 to 10 where 0 is no effect and 10 is complete control

Cc1ccccc1-n1c(=O)on(C(=O)N(c2ccc(Oc3ccccc3)cc2)C(C)C)c1=O [Compound 268]
Wheat plant response rating (wheat; Preemergence, Rate 62 g/ha): 0
Wheat plant response rating (wheat; Preemergence, Rate 250 g/ha): 0
Plant response rating, Wheat (wheat; Preemergence, Rate 500 g/ha): 0
Wheat plant response rating (wheat; Rate 125 g/ha, Postemergence): 0
Wheat plant response rating (wheat; Rate 125 g/ha, Preemergence): 0
Plant response rating, Wheat (wheat; Rate 250 g/ha, Postemergence): 0
Soybean plant response rating (soybean; Preemergence, Rate 62 g/ha): 0
Soybean plant response rating (soybean; Preemergence, Rate 250 g/ha): 0
Plant response rating, Soybean (soybean; Preemergence, Rate 500 g/ha): 0
Soybean plant response rating (soybean; Rate 125 g/ha, Postemergence): 0
Soybean plant response rating (soybean; Rate 125 g/ha, Preemergence): 0
Plant response rating, Soybean (soybean; Rate 250 g/ha, Postemergence): 0
Wild oats plant response rating (wild oat; Preemergence, Rate 62 g/ha): 0
Wild oats plant response rating (wild oat; Preemergence, Rate 250 g/ha): 0
Plant response rating, Wild oats (wild oat; Preemergence, Rate 500 g/ha): 0
Wild oats plant response rating (wild oat; Rate 125 g/ha, Postemergence): 0
Plant response rating, Wild oats (wild oat; Rate 250 g/ha, Postemergence): 0
S. Flatsedge plant response rating (smallflower flatsedge; [1]): 0
S. Flatsedge plant response rating (smallflower flatsedge; [2]): 0
S. Flatsedge plant response rating (smallflower flatsedge; [3]): 0
S. Flatsedge plant response rating (smallflower flatsedge; [4]): 0
Morningglory plant response rating (morningglory; [5]): 0
Morningglory plant response rating (morningglory; [6]): 0
Plant response rating, Morningglory (morningglory; [7]): 0
Morningglory plant response rating (morningglory; [8]): 2
Morningglory plant response rating (morningglory; [9]): 0
Plant response rating, Morningglory (morningglory; [10]): 2
Morningglory plant response rating (morningglory; [11]): 7
Corn plant response rating (corn; [5]): 0
Corn plant response rating (corn; [6]): 0
Plant response rating, Corn (corn; [7]): 0
Corn plant response rating (corn; [12]): 0
Corn plant response rating (corn; [8]): 0
Corn plant response rating (corn; [9]): 0
Plant response rating, Corn (corn; [10]): 0
Corn plant response rating (corn; [11]): 3
Rape plant response rating (rape; Preemergence, Rate 62 g/ha): 0
Rape plant response rating (rape; Preemergence, Rate 250 g/ha): 0
Plant response rating, Rape (rape; Preemergence, Rate 500 g/ha): 0
Rape plant response rating (rape; Rate 125 g/ha, Postemergence): 0
Rape plant response rating (rape; Rate 125 g/ha, Preemergence): 0
Plant response rating, Rape (rape; Rate 250 g/ha, Postemergence): 0
Cocklebur plant response rating (cocklebur; [5]): 0
Cocklebur plant response rating (cocklebur; [6]): 0
Plant response rating, Cocklebur (cocklebur; [7]): 0
Cocklebur plant response rating (cocklebur; [12]): 0
Cocklebur plant response rating (cocklebur; [8]): 0
Cocklebur plant response rating (cocklebur; [9]): 0
Plant response rating, Cocklebur (cocklebur; [10]): 0
Cocklebur plant response rating (cocklebur; [11]): 0
Ducksalad plant response rating (duck salad; [1]): 0
Ducksalad plant response rating (duck salad; [2]): 0
Ducksalad plant response rating (duck salad; [3]): 0
Ducksalad plant response rating (duck salad; [4]): 0
Bedstraw plant response rating (bedstraw; Preemergence, Rate 62 g/ha): 0
Bedstraw plant response rating (bedstraw; Preemergence, Rate 250 g/ha): 0
Plant response rating, Bedstraw (bedstraw; Preemergence, Rate 500 g/ha): 0
Bedstraw plant response rating (bedstraw; Rate 62 g/ha, Postemergence): 0
Bedstraw plant response rating (bedstraw; Rate 125 g/ha, Postemergence): 0
Bedstraw plant response rating (bedstraw; Rate 125 g/ha, Preemergence): 0
Plant response rating, Bedstraw (bedstraw; Rate 250 g/ha, Postemergence): 0
Nutsedge plant response rating (purple nutsedge; [5]): 0
Nutsedge plant response rating (purple nutsedge; [6]): 0
Nutsedge plant response rating (purple nutsedge; [8]): 0
Nutsedge plant response rating (purple nutsedge; [9]): 0
Plant response rating, Nutsedge (purple nutsedge; [10]): 0
Nutsedge plant response rating (purple nutsedge; [11]): 0
Giant foxtail plant response rating (giant foxtail; [5]): 0
Giant foxtail plant response rating (giant foxtail; [6]): 0
Plant response rating, Giant foxtail (giant foxtail; [7]): 0
Giant foxtail plant response rating (giant foxtail; [8]): 0
Giant foxtail plant response rating (giant foxtail; [9]): 0
Plant response rating, Giant foxtail (giant foxtail; [10]): 0
Giant foxtail plant response rating (giant foxtail; [11]): 0
Velvetleaf plant response rating (velvetleaf; [5]): 0
Velvetleaf plant response rating (velvetleaf; [6]): 0
Plant response rating, Velvetleaf (velvetleaf; [7]): 0
Velvetleaf plant response rating (velvetleaf; [8]): 0
Velvetleaf plant response rating (velvetleaf; [9]): 0
Plant response rating, Velvetleaf (velvetleaf; [10]): 0
Velvetleaf plant response rating (velvetleaf; [11]): 0
Rice plant response rating (rice; [1]): 0
Rice plant response rating (rice; [2]): 0
Rice plant response rating (rice; [3]): 0
Rice plant response rating (rice; [4]): 0
Crabgrass plant response rating (crabgrass; [5]): 0
Crabgrass plant response rating (crabgrass; [6]): 0
Plant response rating, Crabgrass (crabgrass; [7]): 0
Crabgrass plant response rating (crabgrass; [8]): 0
Crabgrass plant response rating (crabgrass; [9]): 0
Plant response rating, Crabgrass (crabgrass; [10]): 0
Crabgrass plant response rating (crabgrass; [11]): 0
Redroot pigweed plant response rating (pigweed; Preemergence, Rate 62 g/ha): 0
Redroot pigweed plant response rating (pigweed; Preemergence, Rate 250 g/ha): 0
Plant response rating, Redroot pigweed (pigweed; Preemergence, Rate 500 g/ha): 0
Redroot pigweed plant response rating (pigweed; Rate 125 g/ha, Postemergence): 0
Redroot pigweed plant response rating (pigweed; Rate 125 g/ha, Preemergence): 0
Plant response rating, Redroot pigweed (pigweed; Rate 250 g/ha, Postemergence): 0
